Test results taken from ChEMBL document CHEMBL1201862, “PubChem BioAssay data set” (2004).
Active and inactive are the calls of the source.

Experiments:
[1] = Luminescence Cell-Based Dose Response HTS to Identify Activators of Luciferase Translation or Activity in H4 […] Cells. [Related pubchem assays: 1829 (Project Summary), 1814 (Primary HTS)]; type: functional
H4 = assay: Luminescence Cell-Based Dose Response HTS to Identify Activators of 5'UTR Stem-Loop Driven Prion Protein mRNA Translation in H4 Neuroglioblastoma Cells. [Related pubchem assays: 1829 (Project Summary), 1814 (Primary HTS)]; type: functional; conditions: Homo sapiens
Protein skinhead-1 = biological target: T1, Protein skinhead-1 (Caenorhabditis elegans, UniProt P34707); type: functional
T1 sequence (P34707 whole entry): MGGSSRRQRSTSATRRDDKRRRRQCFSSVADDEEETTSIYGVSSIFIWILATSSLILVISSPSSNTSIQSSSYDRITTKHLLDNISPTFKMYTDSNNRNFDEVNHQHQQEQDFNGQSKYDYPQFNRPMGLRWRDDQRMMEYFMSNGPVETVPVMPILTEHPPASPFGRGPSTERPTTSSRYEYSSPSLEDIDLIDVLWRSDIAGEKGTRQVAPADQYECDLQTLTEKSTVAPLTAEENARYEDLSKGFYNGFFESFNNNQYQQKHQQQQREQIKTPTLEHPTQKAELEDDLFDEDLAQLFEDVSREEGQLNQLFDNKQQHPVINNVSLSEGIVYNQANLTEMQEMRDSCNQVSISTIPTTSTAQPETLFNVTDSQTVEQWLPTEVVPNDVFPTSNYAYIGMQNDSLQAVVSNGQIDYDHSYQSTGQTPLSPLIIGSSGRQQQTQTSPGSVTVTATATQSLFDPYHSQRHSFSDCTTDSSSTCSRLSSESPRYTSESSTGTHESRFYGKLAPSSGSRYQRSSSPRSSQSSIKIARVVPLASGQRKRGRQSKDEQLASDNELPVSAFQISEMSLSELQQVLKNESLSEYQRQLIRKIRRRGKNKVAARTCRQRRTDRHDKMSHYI

[2] = biological target: T2, Calpain-2 catalytic subunit (Sus scrofa, UniProt P43367); assay: pig calpain II inhibitor potency, dose response, biochemical, fluorogenic peptide substrate (AID 1420); type: functional
T2 sequence (P43367 whole entry): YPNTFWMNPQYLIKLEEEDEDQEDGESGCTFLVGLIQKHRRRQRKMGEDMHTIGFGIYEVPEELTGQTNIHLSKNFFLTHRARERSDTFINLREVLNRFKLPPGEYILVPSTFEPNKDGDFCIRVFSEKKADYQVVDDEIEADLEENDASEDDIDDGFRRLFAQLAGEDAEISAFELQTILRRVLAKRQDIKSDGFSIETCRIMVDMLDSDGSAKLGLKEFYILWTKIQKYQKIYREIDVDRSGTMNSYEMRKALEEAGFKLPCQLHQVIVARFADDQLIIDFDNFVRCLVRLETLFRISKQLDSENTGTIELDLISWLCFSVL

[3] = growth suppression of PTEN-null colon cells, dose response, cell-based, HCT116 PTEN knockout (AID 1047); type: functional;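 further: HCT116 colon tumor cells with PTEN knocked out; cells exposed to compound for 60 hours before readout; potency for loss of cell viability measured by luminescence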
[4] = growth suppression of beta-catenin-knockout colon cells, dose response, cell-based, HCT116, human colon tumor (AID 1045); type: functional;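 further: HCT116 colon tumor cells with beta catenin knocked out; cells exposed to compound for 60 hours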
[5] = Luminescence Cell-Based Dose Retest to Confirm Inhibitors of Cancer Stem Cells. [Related pubchem assays (depositor defined):AID2717, AID2721]; type: functional; conditions: Homo sapiens
cells [6] = type: functional, cell-based
cells [7] = type: functional, cell-based; remark: listed apart in the source
[8] = biological target: FAD-linked sulfhydryl oxidase ALR (Homo sapiens, UniProt P55789); assay: inhibitors of human ALR sulfhydryl oxidase, dose response, biochemical, H2O2 detection, luminescence, cherry-pick (AID 493248)
[9] = HEp-2 cell cytotoxicity, dose response, cytotoxicity control for RSV inhibitor project, HTS (AID 2410); type: functional; conditions: human respiratory syncytial virus
Cytochrome P450 2C19 = Cytochrome P450 2C19 (Homo sapiens, UniProt P33261); assay: Cytochrome panel assay with activity outcomes. Panel member name: p450-cyp2c19 Compounds with AC50 equal or less than 10 uM are considered active; type: functional; conditions: read-out: AC50
[10] = inhibitors of intracellular T. cruzi replication, confirmation, NIH3T3 host cells, beta-gal luminescence (AID 2044); type: functional, cell-based;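 further: intracellular parasites grown in NIH/3T3 mouse fibroblasts as host cells; luminescent beta-galactosidase reporter signal from transgenic T. cruzi replicating inside host cells; inhibitors lower the luminescence signal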
[11] = microbe, parasite or virus in culture; type: functional; conditions: Mycobacterium tuberculosis
[12] = cytotoxicity toward NIH3T3 fibroblasts, dose response, counter-screen, cell-based, ATP luminescence, mouse fibroblasts (AID 2010); type: functional;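 further: cells exposed to compound for about 90 hours before reading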
INS1 = assay: beta cell apoptosis inhibitors, cytokine rescue, dose response, luminescence, retest (AID 449756); type: functional, cell-based; conditions: Rattus norvegicus;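 further: cell death triggered by IL-1 beta plus TNF-alpha plus IFN-gamma mixture; protective hits raise ATP signal compared with cytokine alone wells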
Paired box protein Pax-8 = Paired box protein Pax-8 (Homo sapiens, UniProt Q06710); assay: inhibitors of PAX8-driven TPO luciferase reporter, dose response, RMG-I cells, cherry-pick (AID 687027); type: functional, cell-based;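 further: luciferase reporter driven by Pax8 target thyroperoxidase promoter measured by SteadyGlo luminescence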
[13] = P. falciparum Dd2 growth inhibitors, dose response, SYBR Green, cherry-picked samples (AID 1159567); type: functional, cell-based

Sequence of FAD-linked sulfhydryl oxidase ALR (P55789 whole entry): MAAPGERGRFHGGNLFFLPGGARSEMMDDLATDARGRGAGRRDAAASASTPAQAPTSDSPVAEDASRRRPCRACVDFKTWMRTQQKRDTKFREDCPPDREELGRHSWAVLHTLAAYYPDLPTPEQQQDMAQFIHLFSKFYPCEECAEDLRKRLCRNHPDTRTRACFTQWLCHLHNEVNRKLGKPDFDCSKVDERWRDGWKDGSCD
Sequence of Paired box protein Pax-8 (Q06710 whole entry): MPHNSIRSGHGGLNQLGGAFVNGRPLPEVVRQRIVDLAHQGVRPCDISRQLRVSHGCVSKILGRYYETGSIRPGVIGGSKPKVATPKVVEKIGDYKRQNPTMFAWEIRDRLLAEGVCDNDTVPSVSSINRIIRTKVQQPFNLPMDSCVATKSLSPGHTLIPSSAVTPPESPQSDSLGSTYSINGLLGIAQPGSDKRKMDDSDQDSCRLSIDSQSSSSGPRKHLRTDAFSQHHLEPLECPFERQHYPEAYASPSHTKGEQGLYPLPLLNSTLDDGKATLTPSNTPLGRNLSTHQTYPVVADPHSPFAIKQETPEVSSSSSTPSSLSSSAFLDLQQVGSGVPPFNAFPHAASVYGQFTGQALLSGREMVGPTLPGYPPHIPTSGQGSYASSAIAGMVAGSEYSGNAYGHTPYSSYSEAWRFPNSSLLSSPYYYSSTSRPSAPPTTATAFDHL
Sequence of Cytochrome P450 2C19 (P33261 whole entry): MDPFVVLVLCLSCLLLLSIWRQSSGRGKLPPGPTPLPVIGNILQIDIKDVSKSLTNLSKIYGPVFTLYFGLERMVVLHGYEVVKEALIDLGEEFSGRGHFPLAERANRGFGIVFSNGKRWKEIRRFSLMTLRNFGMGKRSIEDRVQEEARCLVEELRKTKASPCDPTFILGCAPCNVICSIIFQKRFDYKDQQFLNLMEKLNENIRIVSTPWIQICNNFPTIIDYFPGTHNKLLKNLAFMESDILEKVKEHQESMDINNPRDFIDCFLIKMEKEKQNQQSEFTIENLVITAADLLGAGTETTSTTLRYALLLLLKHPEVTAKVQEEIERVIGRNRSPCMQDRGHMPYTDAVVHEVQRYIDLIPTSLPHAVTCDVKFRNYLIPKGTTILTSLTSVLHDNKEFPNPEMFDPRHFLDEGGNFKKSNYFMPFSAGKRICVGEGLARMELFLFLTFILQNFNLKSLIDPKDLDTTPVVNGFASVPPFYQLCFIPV

## Cc1c(C(=O)/C=C/c2cccs2)oc2ccc(F)cc12
[1]
  EC50: 0.139 µM (active)
H4
  EC50: 34.1 µM (inconclusive)
Protein skinhead-1
  IC50: > 100 µM (inactive)

## CC(C)Oc1cccc(C(=O)Nc2ccc(CN3CCOCC3)cc2)c1
Protein skinhead-1
  IC50: 31.1 µM (active)

## CN(CC(=O)Nc1ccc(N2CCOCC2)cc1)Cc1cc(=O)n2ccsc2n1
[2]
  IC50: < 0.4 µM (not active)

## O=C(NC(c1ccc(Cl)cc1)c1c(O)ccc2ccccc12)c1ccccc1 (stereo unspecified)
[3]
  EC50: 7.75 µM (active)
[4]
  EC50: 8.69 µM (active)
[5]
  AC50: 1.23 µM (active)

## C#CCN1C(=O)S/C(=C/C=C/c2ccc(N(C)C)cc2)C1=O
Protein skinhead-1
  IC50: > 100 µM (inactive)

## FC(F)(F)c1ccc(-c2n[nH]c(S)n2)cc1
Cells [6]
  EC50: > 350 µM (not active)
Cells [7]
  EC50: > 350 µM (not active)
[8]
  AC50: 0.248 µM (active)

## C=CCn1c(Sc2nc(C)cs2)nc2c1c(=O)[nH]c(=O)n2C
[9]
  CC50: 32.4 µM (active)
[2]
  IC50: > 50 µM (not active)

## CC(=O)Nc1ccc(NC(=O)CC2Nc3cccc4cccc(c34)NC2=O)cc1 (stereo unspecified)
[8]
  AC50: 7.99 µM (active)
Cytochrome P450 2C19
  AC50: 39.8 µM (inconclusive)

## CCN1CCN(CC(=O)Nc2sc3c(c2C#N)CCC(C)C3)CC1 (stereo unspecified)
[3]
  EC50: 15.8 µM (active)
[4]
  EC50: 17.9 µM (active)

## N#Cc1c(Cl)cccc1Oc1ccc(S(=O)(=O)Nc2ccccc2)cc1
[2]
  IC50: > 50 µM (not active)

## Clc1ccccc1-c1nnc2sc(-c3cccs3)nn12
[2]
  IC50: 2.83 µM (not active)

## O=C(Nc1ccccc1NC(=O)NC1CCCCC1)NC1CCCCC1
[3]
  EC50: 15.1 µM (active)
[4]
  EC50: 17.8 µM (active)

## CC(=O)c1ccc(S(=O)(=O)Nc2cccc(S(=O)(=O)NC3=NCCC3)c2)cc1
[8]
  AC50: > 100 µM (inactive)

## CN(CCCNC(=O)c1cc2c(Cl)nc3ccccc3c2s1)Cc1ccccc1
[10]
  EC50: 0.771 µM (active)
[11]
  CC50: 22.2 µM (active)
[12]
  EC50: > 60 µM (not active)

## Cc1ccc(NC(=O)c2ccc(C(C)(C)C)cc2)cc1-n1cnnn1
[2]
  IC50: 0.895 µM (not active)

## CNc1ccccc1C(=O)OC(C)C(=O)Nc1ccc(Cl)cn1 (stereo unspecified)
[11]
  CC50: 25.3 µM (active)

## CC(=O)c1ccc(-n2nncc2-c2ccc([N+](=O)[O-])cc2)cc1
Protein skinhead-1
  IC50: > 100 µM (inactive)

## CCCCCc1cc(=O)oc2c(C(CCN3CCCCC3)c3ccc4c(c3)OCO4)c(OC)cc(OC)c12 (stereo unspecified)
[5]
  AC50: 6.41 µM (active)
INS1
  AC50: 8 µM (active)
Paired box protein Pax-8
  AC50: 13.4 µM (active)

## CC(C)Cn1c(N)c(C(=O)COC(=O)/C=C/c2cccs2)c(=O)n(C)c1=O
[2]
  IC50: > 50 µM (not active)

## CC1(c2ccc(O)cc2)NC(=O)N(c2ccccc2)N1 (stereo unspecified)
[5]
  AC50: 4.14 µM (active)
[8]
  AC50: 0.015 µM (active)

## O=C(/C=C/c1ccco1)Nc1nc(-c2ccccc2)cs1
Protein skinhead-1
  IC50: 68.6 µM (inactive)

## CCCCCn1cnc2sc(-c3ccccc3)cc2c1=O
[9]
  CC50: > 50 µM (active)
[1]
  EC50: 2.43 µM (active)
H4
  EC50: 6.94 µM (active)
Protein skinhead-1
  IC50: > 100 µM (inactive)

## O=C(/C=C/c1c(F)cccc1Cl)c1ccc(F)cc1
[11]
  CC50: > 40 µM (active)

## OC(COc1cccc2ccccc12)CN1CCN(c2ccccc2Cl)CC1 (stereo unspecified)
[2]
  IC50: 3.82 µM (not active)

## O=C(CNCc1ccccc1)Nc1ccc(Oc2ccccc2)cc1
[2]
  IC50: > 50 µM (not active)

## O=C(CN1C(=O)c2ccccc2C1=O)Nc1ccc(-c2nc3ccccc3o2)cc1
[2]
  IC50: 17.9 µM (not active)

## COc1ccc(N2CCN(C(CNC(=O)C(C)C)c3ccc4c(c3)OCO4)CC2)cc1 (stereo unspecified)
[8]
  AC50: 4.01 µM (active)

## Nc1ccccc1C#Cc1ccc2[nH]ccc2c1
[8]
  AC50: 14.9 µM (active)

## N#Cc1ccc(CN2CCN(C(=O)c3cc(C4CC4)nn3-c3ccccc3)CC2)cc1
Protein skinhead-1
  IC50: 37.5 µM (active)

## CC(=O)Nc1ccc2c(c1Br)Cc1ccccc1-2
Protein skinhead-1
  IC50: > 100 µM (inactive)

## O=[N+]([O-])c1ccc(COc2ccc(CN3CCCCC3)cc2)cc1
Protein skinhead-1
  IC50: 3.46 µM (active)

## CCCCN1C[C@H](c2ccc(Br)cc2)[C@@H](CC(=O)Nc2ccc(Br)cc2)C1=O
Protein skinhead-1
  IC50: > 100 µM (inactive)

## COC(=O)c1ccc2nc(-c3ccc(C)cc3)c(Cc3cccc(F)c3)n2c1
Protein skinhead-1
  IC50: > 100 µM (inactive)

## COc1cccc(S(=O)(=O)N2CC[C@@H]3[C@H](CO)Nc4ccc(C5=CCCCC5)cc4[C@@H]32)c1
Paired box protein Pax-8
  AC50: 10 µM (active)

## C[C@@H]1CN([C@H](C)CO)C(=O)c2cc(NS(=O)(=O)c3ccc(F)cc3)ccc2O[C@@H](C)CCCCO[C@H]1CN(C)Cc1ccccc1
Paired box protein Pax-8
  AC50: 17.2 µM (active)

## C[C@@H]1CN([C@@H](C)CO)S(=O)(=O)c2ccc(C#Cc3ccc(F)cc3)cc2O[C@@H]1CN(C)C(=O)NC1CCCCC1
Paired box protein Pax-8
  AC50: 8.43 µM (active)

## Cc1c(/C=N\NC(=O)c2ccc(F)cc2)cnn1C
[8]
  AC50: 4.3 µM (active)

## CC(/C=N/n1c(S)nnc1-c1ccccn1)=C\c1ccccc1
[8]
  AC50: 5.86 µM (active)

## C/C(=N/NC(=O)c1cc(-c2cccc([N+](=O)[O-])c2)[nH]n1)c1ccc(Cl)cc1
[2]
  IC50: 13.6 µM (not active)

## Cc1ccc2nc(C)cc(N/N=C/c3cccnc3)c2c1
[8]
  AC50: 6.08 µM (active)

## S=C(NCc1ccco1)N/N=C/c1ccccc1Cl
[2]
  IC50: 2.44 µM (not active)

## COc1ccc2c3c([nH]c2c1)[C@@H](CO)N(S(C)(=O)=O)CC31CCN(Cc2cccc(F)c2)CC1
[13]
  AC50: 4.86 µM (active)

## O=C(c1ccccn1)N1CC(=O)N2[C@H](CO)[C@@H](c3ccc(C#CCc4ccccc4)cc3)[C@@H]2C1
[13]
  AC50: 6.31 µM (active)

## N#C[C@@H]1[C@H](c2ccccc2/C=C/c2ccccc2)[C@H](CO)N1S(=O)(=O)c1ccc(F)cc1
[13]
  AC50: 6.19 µM (active)

## COc1cccc(CN2[C@@H]3CNC[C@H]2[C@H]3c2ccc(-c3ccccc3OC)cc2)c1
[13]
  AC50: 5.81 µM (active)

## CCCC(=O)N1CC2(C1)CN(Cc1ccc(Cl)cc1)[C@H](CO)c1[nH]c3cc(OC)ccc3c12
[13]
  AC50: 6.65 µM (active)

## OC[C@H]1CC[C@@H]2O[C@H](CCc3ccc(-c4ccc(F)cc4)cc3)[C@H](n3cc(C4CC4)nn3)C[C@@H]2O1
[13]
  AC50: 5 µM (active)

## CCNC(=O)c1cc2c(c(-c3cccc(-c4cc5ccccc5o4)c3)n1)[C@@H](CCO)N(C(=O)NC(C)C)C2
[13]
  AC50: 6.29 µM (active)
